For one series, the system named is PDH. The conditions noted are these: cited from earlier work.
For series [1] the following is noted: cited from earlier work.

A word on the melting point: it is the temperature of the solid-liquid transition.

Consider `CC(C)(O)C(=O)Nc1ccc(S(=O)(=O)c2ccccc2)cc1F`, for which the melting point fell in the range of 155.5 to 156.5 °C.

The molecule `C[S+]([O-])c1ccccc1S(=O)(=O)c1ccc(NC(=O)[C@@](C)(O)C(F)(F)F)c(Cl)c1` (stereo partly shown) registered a melting point of 118 to 120 °C.

For `CC(=O)Nc1cc(S(=O)(=O)c2ccccc2)ccc1NC(=O)C(C)(O)C(F)(F)F` (stereo not shown), the melting point was in the range of 205 to 207 °C.

Turning to `CC(C)(O)C(=O)Nc1ccc(Sc2ccccc2)cc1F`, the melting point was 91 to 92.5 °C.

In the case of `CC(C)(O)C(=O)Nc1ccc(Sc2ccc(NS(C)(=O)=O)cc2)cc1Cl`, the melting point lay in the range of 138 to 140 °C.

The molecule `C[C@@](O)(C(=O)Nc1ccc(S(=O)(=O)c2ccccc2NCCO)cc1Cl)C(F)(F)F` displayed a melting point of 68 to 70 °C.

Take `O=C(O)C(Cl)Cl` [DCA, dichloroacetic acid]: in the series with PDH (after acute administration in animals (Vary et al. 1988)), the “activity of PDH” value is “increases the activity of PDH”. Further, in the series with PDH (single administration, 150 mg/kg, intraperitoneally (Vary et al. 1988)), the “proportion of PDH in its active form” value is recorded as “increased the proportion of PDH in its active form”. Moreover, the glycaemia entry in series [1] (Stacpoole et al. 1978) is “reducing glycaemia”. The plasma glucose result in series [1] (after repeated administration (Evans and Stacpoole 1982)) is given as “significant decrease in plasma glucose”.

The values above are taken from patent US6498275B1, “Use of compounds for the elevation of pyruvate dehydrogenase activity” (AstraZeneca AB, priority 1998, dated 2002).
